Laboratory results from US9023789B2, “Amylin analogs and pharmaceutical compositions thereof” (Novo Nordisk A/S, priority 2012, dated 2015).
In brackets after ≈: the same amount, converted by molar mass. Like-named read-outs stand apart in the source and are kept apart here. Numbered stars: 1 amine (or outer) side, 2 acyl side, 3 side chain; on linkers, the order of the positions; unused ones are H or OH. Bridge positions count the residues as written; N and C are the ends. Side chains are listed from the residue outwards. Peptide text beside a SMILES is read from it. * marks the point of attachment. C20 diacid = O=C(O)CCCCCCCCCCCCCCCCCCC(=O)*; γGlu = O=C(O)[C@H](CCC(=O)[*:2])N[*:1]; AEEA = NCCOCCOCC(=O)O

What was measured:
[1] = molecular target: T1, human amylin receptor (membranes from Amylin 3(a)/CRE-luc cells) (Homo sapiens, UniProt O60896+P30988); test: ASSAY (V) binding to the human amylin receptor (SPA, 125I-rat amylin);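 note: competition binding of cell membranes (35 ng/µL) mixed with SPA beads in 384-well plates at 40 µL total volume, read by scintillation counting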
T1 construct: expressed in transfected cells
T1 sequence (P30988 25-474): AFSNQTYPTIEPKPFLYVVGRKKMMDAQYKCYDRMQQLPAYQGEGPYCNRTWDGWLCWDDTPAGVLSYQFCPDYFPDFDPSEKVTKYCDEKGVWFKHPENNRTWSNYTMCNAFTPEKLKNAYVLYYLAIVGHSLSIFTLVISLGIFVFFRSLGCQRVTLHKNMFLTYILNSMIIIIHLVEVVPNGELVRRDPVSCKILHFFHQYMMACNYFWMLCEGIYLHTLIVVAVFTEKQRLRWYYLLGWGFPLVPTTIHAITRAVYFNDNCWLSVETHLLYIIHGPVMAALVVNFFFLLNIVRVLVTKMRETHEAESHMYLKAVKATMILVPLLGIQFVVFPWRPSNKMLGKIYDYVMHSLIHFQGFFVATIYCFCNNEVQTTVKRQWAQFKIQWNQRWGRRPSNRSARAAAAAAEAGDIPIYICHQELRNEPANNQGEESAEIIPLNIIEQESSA
T1 sequence (O60896 24-148 partner): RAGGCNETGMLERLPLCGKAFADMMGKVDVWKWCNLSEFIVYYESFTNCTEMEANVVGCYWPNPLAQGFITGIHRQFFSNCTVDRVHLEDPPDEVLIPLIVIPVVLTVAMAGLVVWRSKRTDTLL

[2] = ASSAY (IV) determination of solubility; type: physicochemical
Outline: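 Solubility measured by UPLC of supernatant after centrifugation, following 18 h at room temperature. Peptide ([…] in water) was diluted 1:1 into 100 mM glycylglycine (pH 3.0, 4.0, 5.0) or bistrispropane (pH 6.0-8.0).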

[3] = molecular target: T2, human amylin 3(a) receptor (human calcitonin receptor + RAMP-3) in BHK570 cells (Homo sapiens, UniProt O60896+P30988); test: ASSAY (II)a functional assay, human amylin receptor (CRE luciferase); type: cell-based
T2 construct: expressed in transfected cells
Outline: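 Readout is luminescence from a cAMP-responsive CRE-luc reporter, developed with LucLite for 30 min at room temperature. Cells were treated for 3 h at 37 °C in 10% FBS/DMEM buffered with 10 mM Hepes (pH 7.4).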

[4] = Table 5, selectivity, hCTR bind IC50 / hAmylin-R bind IC50
[5] = Table 5a, selectivity, hCTR bind IC50 / hAmylin-R bind IC50
[6] = Table 5b, selectivity, hCTR bind IC50 / hAmylin-R bind IC50
[7] = Table 5c, selectivity, hCTR bind IC50 / hAmylin-R bind IC50
[8] = Table 7, human binding selectivity, included for comparison
[9] = Table 7a (preferred compounds), human binding selectivity, included for comparison
[10] = ratio of human calcitonin receptor binding IC50 to human amylin receptor binding IC50
[11] = bistrispropane buffer, pH 6.5, read-out: Solubility pH 6.5 Concentration
[12] = bistrispropane buffer, pH 7.5, read-out: Solubility pH 7.5 Concentration
[13] = bistrispropane buffer, pH 6.0, read-out: Solubility pH 6.0 Concentration
[14] = bistrispropane buffer, pH 7.0, read-out: Solubility pH 7.0 Concentration
[15] = bistrispropane buffer, pH 8.0, read-out: Solubility pH 8.0 Concentration
[16] = glycylglycine buffer, pH 3.0, read-out: Solubility pH 3.0 Concentration
[17] = glycylglycine buffer, pH 4.0, read-out: Solubility pH 4.0 Concentration
[18] = glycylglycine buffer, pH 5.0, read-out: Solubility pH 5.0 Concentration
[19] = hCTR funct. EC50 divided by hAmylin-R funct. EC50
[20] = hCTR funct. EC50 over hAmylin-R funct. EC50
[21] = human functional selectivity: hCTR funct. EC50 / hAmylin-R funct. EC50

Compound	Ratio hCT/hAmylin binding [1, 4]	Ratio hCT/hAmylin binding [1, 5]	Ratio hCT/hAmylin binding [1, 6]	Ratio hCT/hAmylin binding [1, 7]	Ratio hCT/hAmylin binding [1, 8]	Ratio hCT/hAmylin binding [1, 9]	Ratio hCT/hAmylin binding [1, 10]	solubility at 18 h [2, 11] [µM]	solubility at 18 h [2, 12] [µM]	solubility at 18 h [2, 13] [µM]	solubility at 18 h [2, 14] [µM]	solubility at 18 h [2, 15] [µM]	solubility at 18 h [2, 16] [µM]	solubility at 18 h [2, 17] [µM]	solubility at 18 h [2, 18] [µM]	Ratio hCT/hAmylin funct. [3, 19]	Ratio hCT/hAmylin funct. [3, 20]	Ratio hCT/hAmylin funct. [3, 21]	IC50 ([1]; Table 4, read-out: hAmylin-R bind IC50) [pM]	EC50 ([3]; human amylin receptor functional potency, assay (II), read-out: hAmylin-R funct. EC50) [pM]
CC[C@H](C)[C@H](NC(=O)[C@H](C)NC(=O)CNC(=O)[C@H](Cc1ccccc1)NC(=O)[C@H](CC(N)=O)NC(=O)[C@@H]1CCCN1C(=O)[C@H](CO)NC(=O)[C@H](CO)NC(=O)[C@H](Cc1c[nH]cn1)NC(=O)[C@H](CCCNC(=N)N)NC(=O)[C@H](CC(C)C)NC(=O)[C@H](Cc1ccccc1)NC(=O)[C@H](Cc1c[nH]cn1)NC(=O)[C@H](C)NC(=O)[C@H](CC(C)C)NC(=O)[C@H](CCCNC(=N)N)NC(=O)[C@H](CCC(N)=O)NC(=O)[C@@H](NC(=O)[C@H](C)NC(=O)[C@@H]1CSSC[C@H](NC(=O)[C@@H](N)CCCCNC(=O)CC[C@H](NC(=O)CC[C@H](NC(=O)CCCCCCCCCCCCCCCCCCC(=O)O)C(=O)O)C(=O)O)C(=O)N[C@@H](CC(N)=O)C(=O)N[C@@H]([C@@H](C)O)C(=O)N[C@@H](C)C(=O)N[C@@H]([C@@H](C)O)C(=O)N1)[C@@H](C)O)C(=O)N1CCC[C@H]1C(=O)N[C@@H](CO)C(=O)N[C@@H](CO)C(=O)N[C@H](C(=O)N[C@@H](CC(N)=O)C(=O)N[C@H](C(=O)NCC(=O)N[C@@H](CO)C(=O)N[C@@H](CC(N)=O)C(=O)N[C@H](C(=O)N[C@@H](Cc1ccc(O)cc1)C(N)=O)[C@@H](C)O)C(C)C)[C@@H](C)O [Example 92]	145.0	145.0	145.0	145.0	145.0	145.0	145.0	≥ 200	≥ 200	≥ 200	≥ 200	≥ 200	≥ 200	≥ 200	≥ 200	28.0	28.0	28.0		
CC[C@H](C)[C@H](NC(=O)[C@H](C)NC(=O)CNC(=O)[C@H](Cc1ccccc1)NC(=O)[C@H](CC(N)=O)NC(=O)[C@@H]1CCCN1C(=O)[C@H](CO)NC(=O)[C@H](CO)NC(=O)[C@H](Cc1c[nH]cn1)NC(=O)[C@H](CCCNC(=N)N)NC(=O)[C@H](CC(C)C)NC(=O)[C@H](Cc1ccccc1)NC(=O)[C@H](C)NC(=O)[C@H](C)NC(=O)[C@H](CC(C)C)NC(=O)[C@H](CCCNC(=N)N)NC(=O)[C@H](CCC(N)=O)NC(=O)[C@@H](NC(=O)[C@H](C)NC(=O)[C@@H]1CSSC[C@H](NC(=O)[C@@H](N)CCCCNC(=O)COCCOCCNC(=O)CC[C@H](NC(=O)CCCCCCCCCCCCCCCCCCC(=O)O)C(=O)O)C(=O)N[C@@H](CC(N)=O)C(=O)N[C@@H]([C@@H](C)O)C(=O)N[C@@H](C)C(=O)N[C@@H]([C@@H](C)O)C(=O)N1)[C@@H](C)O)C(=O)N1CCC[C@H]1C(=O)N[C@@H](CO)C(=O)N[C@@H](CO)C(=O)N[C@H](C(=O)N1CCC[C@H]1C(=O)N[C@H](C(=O)NCC(=O)N[C@@H](CO)C(=O)N[C@@H](CC(N)=O)C(=O)N[C@H](C(=O)N[C@@H](Cc1ccc(O)cc1)C(N)=O)[C@@H](C)O)C(C)C)[C@@H](C)O [Example 72] (H-K([AEEA-γGlu-C20 diacid])CNTATCATQRLAAFLRHSSPNFGAIPSSTPVGSNTY-NH2; disulfide 2-7 (inferred); N-terminus assumed)	246.6	246.6	246.6	246.6	246.6	246.6	246.6	≥ 200	≥ 200	≥ 200	≥ 200	194 (≈ 866 µg/mL)	≥ 200	≥ 200	≥ 200	44.9	44.9	44.9	172	106
CC[C@H](C)[C@H](NC(=O)[C@H](C)NC(=O)CNC(=O)[C@H](Cc1ccccc1)NC(=O)[C@H](CC(N)=O)NC(=O)[C@@H]1CCCN1C(=O)[C@H](CO)NC(=O)[C@H](CO)NC(=O)[C@H](Cc1c[nH]cn1)NC(=O)[C@H](CCCNC(=N)N)NC(=O)[C@H](CC(C)C)NC(=O)[C@H](Cc1ccccc1)NC(=O)[C@H](CC(N)=O)NC(=O)[C@H](C)NC(=O)[C@H](CC(C)C)NC(=O)[C@H](CCCNC(=N)N)NC(=O)[C@H](CCC(N)=O)NC(=O)[C@@H](NC(=O)[C@H](C)NC(=O)[C@@H]1CSSC[C@H](NC(=O)[C@@H](N)CCCCNC(=O)COCCOCCNC(=O)COCCOCCNC(=O)CC[C@H](NC(=O)CCCCCCCCCCCCCCCCCCC(=O)O)C(=O)O)C(=O)N[C@@H](CC(N)=O)C(=O)N[C@@H]([C@@H](C)O)C(=O)N[C@@H](C)C(=O)N[C@@H]([C@@H](C)O)C(=O)N1)[C@@H](C)O)C(=O)N1CCC[C@H]1C(=O)N[C@@H](CO)C(=O)N[C@@H](CO)C(=O)N[C@H](C(=O)N[C@@H](CC(N)=O)C(=O)N[C@H](C(=O)NCC(=O)N1CCC[C@H]1C(=O)N[C@@H](CC(N)=O)C(=O)N[C@H](C(=O)N[C@@H](Cc1ccc(O)cc1)C(N)=O)[C@@H](C)O)C(C)C)[C@@H](C)O [Example 98]	74.1	74.1	74.1	74.1	74.1	74.1	74.1	≥ 200	≥ 200	≥ 200	≥ 200	176 (≈ 824 µg/mL)	≥ 200	≥ 200	≥ 200	19.5	19.5	19.5		
